Columns and labels:
NCIH460 = test: Anti-cancer screen (MTT), NCIH460; type: cell-based; conditions: Homo sapiens, NCI-H460, 48 hours with compound, tested at 0.01-100 µM
Description: (§1) Experimental drugs are screened for anti-cancer activity in three cell lines for their GI50, TGI and LC50 values (using five concentrations for each compound). The cell lines are maintained in DMEM containing 10% fetal bovine serum. 96 well micro titer plates are inoculated with cells in 100 µL for 24 hours at 37° C., 5% CO2, 95% air and 100% relative humidity. 5000 HCT 116 cells/well, 5000 NCIH 460 cells/well and 5000 U251 cells/well are plated. A separate plate with these cell lines is also inoculated to determine cell viability before the addition of the compounds (T0).
(§2) Following 24-hour incubation, experimental drugs are added to the 96 well plates. Each plate contains one of the above cell lines and the following in triplicate: five different concentrations (0.01, 0.1, 1, 10 and 100 µM) of four different compounds, appropriate dilutions of a cytotoxic standard and control (untreated) wells. Compounds are dissolved in DMSO to make 20 mM stock solutions on the day of drug addition and frozen at −20° C. Serial dilutions of these 20 mM stock solutions are made in complete growth medium such that 100 µL of these drug solutions in medium, of final concentrations equaling 0.01, 0.1, 1, 10 and 100 µM can be added to the cells in triplicate. Standard drugs whose anti-cancer activity has been well documented and which are regularly used are doxorubicin and SAHA.
(§3) For T0 measurement, 24 hours after seeding the cells, 10 µL of 3-(4,5-Dimethyl-2-thiazolyl)-2,5-diphenyl-2H-tetrazolium (MTT) solution per well is added and incubation carried out for 3 hours at 37° C., 5% CO2, 95% air and 100% relative humidity, protected from light. Cells incubated with compounds for 48 hours are treated similarly except with the addition of 20 µl MTT solution per well and a subsequent incubation under the same conditions. After 3 hours of MTT incubation, well contents are aspirated carefully followed by addition of 150 µL DMSO per well. Plates are agitated to ensure solution of the formazan crystals in DMSO and absorbance read at 570 nm.
(§4) Percent growth is calculated for each compound's concentration relative to the control and zero measurement wells (T0; viability right before compound addition). If a test well's O.D. value is greater than the T0 measurement for that cell line
(§5) %Growth=(test−zero)/(control−zero)×100
(§6) If a test well's O.D. value is lower than the T0 measurement for that cell line, then,
(§7) %Growth=(test−zero)/zero×100

MDAMB-231/U 251 = test: Anti-cancer screen (MTT), MDAMB-231/U 251; type: cell-based; conditions: for CC50: 48 h, read-out: MDAMB-231/U 251 LC50; for GI50 / IC (TGI): 48 hours with compound, MTT, tested at 0.01-100 µM
Description: as §1, §2, §3, §4, §5, §6, §7

[1] = test system: NCIH460, HCT116, MDAMB-231/U 251; test: Anti-cancer screen, mean GI50 over the cell lines; type: cell-based; conditions: in µM
Description: as §1, §2, §3, §4

HCT116 = test: Anti-cancer screen (MTT), HCT116; type: cell-based; conditions: Homo sapiens, HCT-116, 48 hours with compound, tested at 0.01-100 µM
Description: as §1, §2, §3, §4, §5, §6, §7

HDAC = HDAC inhibition; type: biochemical; conditions: for HDAC Inhibition 1 μM: compound at 1 μM; for HDAC Inhibition 10 μM: compound at 10 μM

Row | Structure (SMILES) | GI50 (NCIH460) [µM] | IC (TGI) (NCIH460) [µM] | LC50 (NCIH460) [µM] | CC50 (MDAMB-231/U 251) [µM] | GI50 (MDAMB-231/U 251) [µM] | IC (TGI) (MDAMB-231/U 251) [µM] | Mean GI50 [1] | GI50 (HCT116) [µM] | IC (TGI) (HCT116) [µM] | LC50 (concentration giving 50% net cell kill relative to T0) (HCT116) [µM] | HDAC Inhibition 1 μM (HDAC) | HDAC Inhibition 10 μM (HDAC)
1 | O=C(Cc1csc(NC(=O)OCc2cccnc2)n1)Nc1nc2ccccc2s1 [Example 11, Pyridin-3-ylmethyl{4-[2-(1,3-benzothiazol-2-ylamino)-2-oxoethyl]-1,3-thiazol-2-yl}carbamate] | 7 | > 100 | > 100 | > 100 | 5 | 10 | 6 | > 100 | > 100 | > 100 | – | –
2 | O=C(Nc1nc(CC(=O)N2CCC(N3CCCCC3)CC2)cs1)OCc1cccnc1 [Example 13, Pyridin-3-ylmethyl{4-[2-(1,4′-bipiperidin-1′-yl)-2-oxoethyl]-1,3-thiazol-2-yl}carbamate] | 2.8 | 25 | > 100 | > 100 | 0.09 | > 100 | >100 | > 100 | > 100 | > 100 | – | –
3 | CON(C)C(=O)Cc1csc(NC(=O)OCc2cccnc2)n1 [Example 14, Pyridin-3-ylmethyl(4-{2-[methoxy(methyl)amino]-2-oxoethyl}-1,3-thiazol-2-yl)carbamate] | 10 | > 100 | > 100 | > 100 | > 100 | > 100 | 45 | 80 | > 100 | > 100 | – | –
4 | CNC(=O)Cc1csc(NC(=O)OCc2cccnc2)n1 [Example 15, Pyridin-3-ylmethyl{4-[2-(methylamino)-2-oxoethyl]-1,3-thiazol-2-yl}carbamate] | 60 | > 100 | > 100 | > 100 | 60 | > 100 | 73.3 | 100 | > 100 | > 100 | – | –
5 | CN(C)C(=O)Cc1csc(NC(=O)OCc2cccnc2)n1 [Example 16, Pyridin-3-ylmethyl{4-[2-(dimethylamino)-2-oxoethyl]-1,3-thiazol-2-yl}carbamate] | 8 | > 100 | > 100 | > 100 | 20 | > 100 | 14 | > 100 | > 100 | > 100 | – | –
6 | Nc1ccccc1NC(=O)Cc1csc(NC(=O)OCc2c(F)c(F)c(F)c(F)c2F)n1 [Example 22, Pentafluorobenzyl(4-{2-[(2-aminophenyl)amino]-2-oxoethyl}-1,3-thiazol-2-yl)carbamate] | 48 | > 100 | > 100 | > 100 | 10 | > 100 | 37 | 53 | > 100 | > 100 | – | –
7 | O=C(NCc1ccc(C(=O)NO)cc1)OCc1c(F)c(F)c(F)c(F)c1F [Example 29, Pentafluorobenzyl{4-[(hydroxyamino)carbonyl]benzyl}carbamate] | 0.4 | 22.5 | 82.5 | > 100 | 3.1 | > 100 | 1.5 | 0.98 | 3.5 | 48 | – | –
8 | O=C(NCc1ccc(C(=O)NO)cc1)OCc1ccc(C(F)(F)F)cc1 [Example 35, 4-(Trifluoromethyl)benzyl{4-[(hydroxyamino)carbonyl]benzyl}carbamate] | 20 | 50 | 80 | 70 | 0.05 | 15 | 8.4 | 5 | 12 | 60 | – | –
9 | COc1cc(COC(=O)NCc2ccc(C(=O)NO)cc2)cc(OC)c1OC [Example 36, 3,4,5-Trimethoxybenzyl{4-[(hydroxyamino)carbonyl]benzyl}carbamate] | 68 | > 100 | > 100 | 85 | 5.5 | 10 | 36.2 | 35 | 60 | 85 | – | –
10 | O=C(NCc1ccc(C(=O)NO)cc1)OCc1c(F)cc(F)cc1F [Example 38, 2,4,6-Trifluorobenzyl{4-[(hydroxyamino)carbonyl]benzyl}carbamate] | 22 | 52 | 82 | 68 | 0.5 | 8 | 9.2 | 5 | 20 | 65 | – | –
11 | O=C(NCc1ccc(C(=O)NO)cc1)OCCSc1nc2ccccc2s1 [Example 39, 2-(1,3-Benzothiazol-2-ylthio)ethyl{4-[(hydroxyamino)carbonyl]benzyl}carbamate] | 16 | 54 | 82 | 65 | 0.4 | 5 | 7.3 | 5.5 | 10 | 62 | – | –
12 | CNC(=O)c1ccc(CNC(=O)OCc2nc3ccccc3[nH]2)cc1 [Example 41, 1H-Benzimidazol-2-ylmethyl{4-[(methylamino)carbonyl]benzyl}carbamate] | 6 | > 100 | > 100 | > 100 | 9 | > 100 | 24.3 | 58 | > 100 | > 100 | – | –
13 | Nc1ccccc1NC(=O)c1ccc(CNC(=O)OCc2ccsc2)cc1 [Example 49, 3-Thienylmethyl(4-{[(2-aminophenyl)amino]carbonyl}benzyl)carbamate] | 42 | 96 | > 100 | 82 | 31 | 56 | – | 2 | 59 | > 100 | 10.15 | 18.78
14 | CN1CCN(C(=O)c2ccc(CNC(=O)OCc3ccsc3)cc2)CC1 [Example 50, 3-Thienylmethyl{4-[(4-methylpiperazin-1-yl)carbonyl]benzyl}carbamate] | 64 | > 100 | > 100 | > 100 | 65 | > 100 | – | 64 | > 100 | > 100 | −3.95 | 1.45
15 | O=C(NCc1ccc(C(=O)N2CCOCC2)cc1)OCc1ccsc1 [Example 51, 3-Thienylmethyl[4-(morpholin-4-ylcarbonyl)benzyl]carbamate] | 94.5 | > 100 | > 100 | > 100 | > 100 | > 100 | – | > 100 | > 100 | > 100 | 3.20 | 3.18
16 | CS(=O)(=O)Oc1ccc(NC(=O)c2ccc(CNC(=O)OCc3cccs3)cc2)cc1 [Example 70, 4-[(4-{[(2-thienylmethyloxycarbonyl)amino]methyl}benzoyl)amino]phenylmethanesulfonate] | – | – | – | – | – | – | 19.65 | – | – | – | – | –
17 | CCOC(=O)CN(OC)C(=O)c1ccc(CNC(=O)OCc2cccs2)cc1 [Example 109, ethyl{methoxy[4-({[(2-thienylmethoxy)carbonyl]amino}-methyl)benzoyl]amino}acetate] | – | – | – | – | – | – | – | – | – | – | 8.84 | 15.41

From patent US20100152188A1, “Novel Heterocyclic Compounds” (priority 2005, published 2010)
